Reference: article PMC11995724, “Antibiotic target discovery by integrated phenotypic and activity-based profiling of electrophilic fragments” (Cell chemical biology, 2025)
Structures can show the parent of a compound that is named as a salt.

Assay: in vitro
Conditions: human, hek293t cells

Row | Compound | viability at 48 h, 25 µM [%]
1 | O=C(CCl)Nc1ccc(S(=O)(=O)Nc2ccccc2)cc1 [5-K22, 2-chloro-N-[4-(phenylsulfamoyl)phenyl]acetamide] | 1.09
2 | O=C(CCl)N(Cc1ccccc1)Cc1cc2n(n1)CCCC2 [5-L03, N-benzyl-2-chloro-N-({4H,5H,6H,7H-pyrazolo[1,5-a]pyridin-2-yl}methyl)acetamide] | 0.904
3 | O=C(CCl)N1N=C(c2ccc(Cl)cc2)CC1c1ccco1 (stereo not drawn) [5-L04, 2-chloro-1-[3-(4-chlorophenyl)-5-(furan-2-yl)-4,5-dihydro-1H-pyrazol-1-yl]ethan-1-one] | -0.215
4 | C[C@H]1CN(C(=O)CCl)CCN1C(=O)c1cscn1 [5-L05, 2-chloro-1-[(3S)-3-methyl-4-(1,3-thiazole-4-carbonyl)piperazin-1-yl]ethan-1-one] | 2.69
5 | O=C(CCl)NCc1ccccc1CN1CCOCC1 [5-L06, 2-chloro-N-({2-[(morpholin-4-yl)methyl]phenyl}methyl)acetamide hydrochloride] | 1.46
6 | CCN(Cc1ccc2c(c1)OCO2)C(=O)CCl [5-L07, N-[(1,3-dioxaindan-5-yl)methyl]-2-chloro-N-ethylacetamide] | 0.477
7 | O=C(CCc1ccccc1)NC1CCN(C(=O)CCl)CC1 [5-L08, N-[1-(2-chloroacetyl)piperidin-4-yl]-3-phenylpropanamide] | 1.18
8 | O=C(CCl)NCCc1cccs1 [5-L09, 2-chloro-N-[2-(thiophen-2-yl)ethyl]acetamide] | 90.7
9 | CC(Cl)C(=O)Nc1ccccc1F (stereo not drawn) [5-L10, 2-chloro-N-(2-fluorophenyl)propanamide] | 99.2
10 | CC(NC(=O)CCl)c1cc(F)ccc1N(C)C (stereo not drawn) [5-L11, 2-chloro-N-{1-[2-(dimethylamino)-5-fluorophenyl]ethyl}acetamide] | 9.52
11 | CC(Cl)C(=O)Nc1cccc(S(=O)(=O)N2CCCCC2)c1 (stereo not drawn) [5-L12, 2-chloro-N-[3-(piperidine-1-sulfonyl)phenyl]propanamide] | 98.7
12 | Cc1nn(CC(C)C)c(Cl)c1C1CCCN1C(=O)CCl (stereo not drawn) [5-L13, 2-chloro-1-{2-[5-chloro-3-methyl-1-(2-methylpropyl)-1H-pyrazol-4-yl]pyrrolidin-1-yl}ethan-1-one] | 0.964
13 | O=C(CCl)NCc1ccc(C(=O)N2CCOCC2)cc1 [5-L14, 2-chloro-N-{[4-(morpholine-4-carbonyl)phenyl]methyl}acetamide] | 67.7
14 | CC(Cl)C(=O)NC(C)c1cnn(CC2CCC2)c1 (stereo not drawn) [5-L15, 2-chloro-N-{1-[1-(cyclobutylmethyl)-1H-pyrazol-4-yl]ethyl}propanamide] | 108
15 | O=C(CCl)NC(c1ccccc1)C1CC1 (stereo not drawn) [5-L16, 2-chloro-N-[cyclopropyl(phenyl)methyl]acetamide] | 116
16 | CC(Cl)C(=O)N(C)Cc1ccnn1C (stereo not drawn) [5-L17, 2-chloro-N-methyl-N-[(1-methyl-1H-pyrazol-5-yl)methyl]propanamide] | 134
17 | Cc1nc(C#N)c(N2CCN(C(=O)CCl)CC2)o1 [5-L18, 5-[4-(2-chloroacetyl)piperazin-1-yl]-2-methyl-1,3-oxazole-4-carbonitrile] | 1.74
18 | CC(Cl)C(=O)Nc1ccc2oc(=O)n(CCN(C)C)c2c1 (stereo not drawn) [5-L19, 2-chloro-N-{3-[2-(dimethylamino)ethyl]-2-oxo-2,3-dihydro-1,3-benzoxazol-5-yl}propanamide] | 109
19 | COc1ccccc1NC(=O)C(C)Cl (stereo not drawn) [5-L20, 2-chloro-N-(2-methoxyphenyl)propanamide] | 91.3
20 | CC(Cl)C(=O)NCc1conc1C1CCC1 (stereo not drawn) [5-L21, 2-chloro-N-[(3-cyclobutyl-1,2-oxazol-4-yl)methyl]propanamide] | 101
21 | CC(Cl)C(=O)Nc1ncc(C(F)(F)F)cc1Cl (stereo not drawn) [5-L22, 2-chloro-N-[3-chloro-5-(trifluoromethyl)pyridin-2-yl]propanamide] | 105
22 | CC(Cl)C(=O)NCCN1C(=O)CSC1=O (stereo not drawn) [5-M03, 2-chloro-N-[2-(2,4-dioxo-1,3-thiazolidin-3-yl)ethyl]propanamide] | 87.2
23 | CC(c1cnn(C)c1)N(C)C(=O)CCl (stereo not drawn) [5-M04, 2-chloro-N-methyl-N-[1-(1-methyl-1H-pyrazol-4-yl)ethyl]acetamide] | 1.55
24 | C=CCN(Cc1ccc(Cl)s1)C(=O)CCl [5-M05, 2-chloro-N-[(5-chlorothiophen-2-yl)methyl]-N-(prop-2-en-1-yl)acetamide] | 0.327
25 | CC(NC(=O)CCl)C(=O)N1CCCCC1C (stereo not drawn) [5-M06, 2-chloro-N-[1-(2-methylpiperidin-1-yl)-1-oxopropan-2-yl]acetamide] | 104
26 | Cc1ccc(NC(=O)C2CSCN2C(=O)CCl)c(C)c1 (stereo not drawn) [5-M07, 3-(2-chloroacetyl)-N-(2,4-dimethylphenyl)-1,3-thiazolidine-4-carboxamide] | 0.0812
27 | Cc1csc(COC2CCN(C(=O)CCl)C2)n1 (stereo not drawn) [5-M08, 2-chloro-1-{3-[(4-methyl-1,3-thiazol-2-yl)methoxy]pyrrolidin-1-yl}ethan-1-one] | 1.8

Row | Compound | viability at 48 h, 25 µM [%]
28 | O=C(CCl)NC1CCSc2ccc(F)cc21 (stereo not drawn) [5-M09, 2-chloro-N-(6-fluoro-3,4-dihydro-2H-1-benzothiopyran-4-yl)acetamide] | 0.504
29 | O=C(CCl)N1CCCC1c1nc(Cc2ccc(F)cc2)no1 (stereo not drawn) [5-M10, 2-chloro-1-(2-{3-[(4-fluorophenyl)methyl]-1,2,4-oxadiazol-5-yl}pyrrolidin-1-yl)ethan-1-one] | 0.55
30 | O=C(CCl)N1C2CCC1c1ccccc12 [5-M11, 1-{11-azatricyclo[6.2.1.0,2,7]undeca-2,4,6-trien-11-yl}-2-chloroethan-1-one] | -0.105
31 | CC(C)C(C)N(Cc1ccns1)C(=O)CCl (stereo not drawn) [5-M12, 2-chloro-N-(3-methylbutan-2-yl)-N-[(1,2-thiazol-5-yl)methyl]acetamide] | 9.67
32 | O=C(CCl)NC(c1ccccc1)c1nccs1 (stereo not drawn) [5-M13, 2-chloro-N-[phenyl(1,3-thiazol-2-yl)methyl]acetamide] | 2.38
33 | Cc1ccc(F)c(N2CCC(NC(=O)CCl)CC2)c1 [5-M14, 2-chloro-N-[1-(2-fluoro-5-methylphenyl)piperidin-4-yl]acetamide] | 134
34 | CC(Cl)C(=O)NC(C)c1ccc(Cl)cc1Cl (stereo not drawn) [5-M15, 2-chloro-N-[1-(2,4-dichlorophenyl)ethyl]propanamide] | 69
35 | Cc1cc(C)n2c(-c3c(Cl)cccc3NC(=O)CCl)nnc2n1 [5-M16, 2-chloro-N-(3-chloro-2-{5,7-dimethyl-[1,2,4]triazolo[4,3-a]pyrimidin-3-yl}phenyl)acetamide] | 1.81
36 | O=C(CCl)N1N=C(c2ccco2)CC1c1cccc(Cl)c1 (stereo not drawn) [5-M17, 2-chloro-1-[5-(3-chlorophenyl)-3-(furan-2-yl)-4,5-dihydro-1H-pyrazol-1-yl]ethan-1-one] | 0.403
37 | Cc1nn(C)c(C)c1C(NC(=O)CCl)C(F)(F)F (stereo not drawn) [5-M18, 2-chloro-N-[2,2,2-trifluoro-1-(1,3,5-trimethyl-1H-pyrazol-4-yl)ethyl]acetamide] | 1.44
38 | CC(Cl)C(=O)NC1CCCc2ccccc21 (stereo not drawn) [5-M19, 2-chloro-N-(1,2,3,4-tetrahydronaphthalen-1-yl)propanamide] | 74.2
39 | CC(=O)NC1Cc2ccccc2N(C(=O)CCl)C1 (stereo not drawn) [5-M20, N-[1-(2-chloroacetyl)-1,2,3,4-tetrahydroquinolin-3-yl]acetamide] | 1.81
40 | COc1ccccc1CNC(=O)C(C)Cl (stereo not drawn) [5-M21, 2-chloro-N-[(2-methoxyphenyl)methyl]propanamide] | 68.7
41 | CN(C)c1nc(N2CCOCC2)ncc1NC(=O)CCl [5-M22, 2-chloro-N-[4-(dimethylamino)-2-(morpholin-4-yl)pyrimidin-5-yl]acetamide] | 38.9
42 | Cc1ccc(CN(Cc2c(C)noc2C)C(=O)CCl)c(C)c1 [5-N03, 2-chloro-N-[(3,5-dimethyl-1,2-oxazol-4-yl)methyl]-N-[(2,4-dimethylphenyl)methyl]acetamide] | 1.14
43 | CC(Cl)C(=O)Nc1ccc(N(C)C)cc1 (stereo not drawn) [5-N04, 2-chloro-N-[4-(dimethylamino)phenyl]propanamide hydrochloride] | 99.3
44 | O=C(NCc1ccco1)C1CCCN1C(=O)CCl (stereo not drawn) [5-N05, 1-(2-chloroacetyl)-N-[(furan-2-yl)methyl]pyrrolidine-2-carboxamide] | 1.39
45 | CC(=O)Nc1ccc(NC(=O)C(C)Cl)cc1 (stereo not drawn) [5-N06, 2-chloro-N-(4-acetamidophenyl)propanamide] | 101
46 | CN(C(=O)CCl)C1CCCCC1 [5-N07, 2-chloro-N-cyclohexyl-N-methylacetamide] | 0.964
47 | O=C(CCl)Nc1ccc(Cl)cc1[N+](=O)[O-] [5-N08, 2-chloro-N-(4-chloro-2-nitrophenyl)acetamide] | 76.9
48 | N#Cc1ccc2c(c1)CCN2C(=O)CCl [5-N09, 1-(2-chloroacetyl)-2,3-dihydro-1H-indole-5-carbonitrile] | 0.856
49 | CN(C1CCCCC1)S(=O)(=O)c1ccccc1NC(=O)CCl [5-N10, 2-chloro-N-{2-[cyclohexyl(methyl)sulfamoyl]phenyl}acetamide] | 0.725
50 | CC(Cc1ccc(Cl)s1)NC(=O)CCl (stereo not drawn) [5-N11, 2-chloro-N-[1-(5-chlorothiophen-2-yl)propan-2-yl]acetamide] | 0.992
51 | CC(Cl)C(=O)Nc1cccc2ccccc12 (stereo not drawn) [5-N12, 2-chloro-N-(naphthalen-1-yl)propanamide] | 99.8
52 | C=CC(NC(=O)CCl)C1CCOCC1 (stereo not drawn) [5-N13, 2-chloro-N-[1-(oxan-4-yl)prop-2-en-1-yl]acetamide] | 111
53 | COc1ccc([N+](=O)[O-])cc1NC(=O)C(C)Cl (stereo not drawn) [5-N14, 2-chloro-N-(2-methoxy-5-nitrophenyl)propanamide] | 96.3
54 | CC(Cl)C(=O)NC(C)c1nnc(-c2cccc(F)c2)s1 (stereo not drawn) [5-N15, 2-chloro-N-{1-[5-(3-fluorophenyl)-1,3,4-thiadiazol-2-yl]ethyl}propanamide] | 98.1
